Laboratory results as given in patent publication US20100304422A1, “In-Vitro Model of the Transformation of Metaplasia to Neoplasia” (priority 2009, published 2010).

Experiments:
BAR-T cells [1] = test: Real-time RT-PCR mRNA expression, normalized to β actin; type: cell-based, human; conditions: for molecular changes (mRNA), particularly transformation marker TC22: A alone (pH4) up to 34 weeks
Protocol: (§1) Cell line medium and cell culture—BAR-T cells were grown in special supplemented keratinocyte medium (KBM2) from Cambrex Bioscience (East Rutherford, N.J., USA), as per the protocol described by Jaiswal et al. Hydrochloric acid (A) was used to adjust the pH of the culture medium to experimental conditions. The bile acid, glycochenodeoxycholic acid, GCDA (Sigma, St. Louis, […]., USA), was diluted to optimum working concentration of 200 μM (B) with the culture medium adjusted to pH4 (A+B). 0.1×10^6 cells growing on six-well plates were incubated in A or A+B for 5 min in 24 h. For chronic exposure, cells were exposed for 5 min everyday to A only for up to 34 weeks and A+B for up to 84 weeks. No treatment was done on the day the cells were passed. The time was optimized from similar studies, showing that 5 min was sufficient for induction of signal transduction pathways regulating cellular machinery without cell damage. The cells were rinsed with phosphate buffered saline (PBS) before and after incubation with desired treatment medium. The control untreated cells were grown in parallel in the special medium as mentioned above at pH7.4. A portion of the cells were harvested every 4-6 weeks. Morphological Changes and Growth analysis—BAR-T cells that were exposed to A+B at various weeks were plated at 1×10^5 cells per well in 12 well plates and counted in triplicate using a Beckman Coulter Counter (Vi-CELL1.00). Cells were counted periodically and morphological changes were examined weekly. Foci assay: Cells were plated at 5×10^5 cells per 100 mm dishes (35). Untreated cells grown in parallel were also plated. Cells were grown for 4-5 weeks with regular medium changes beyond 100% confluency, fixed with 10% methanol, 10% acetic acid solution, and stained with 20% ethanol, 0.4% crystal violet for 5 min. Growth in soft agar: Each well of the six well plates was layered with base agar layer containing 0.8% agar in grown medium. […] Large (>1 mm) and small colonies (<1 mm) were visually identified, photographed and counted separately. […]

BAR-T cells [2] = test: Morphological changes; type: cell-based, human
Protocol: as §1, with “The cells were rinsed with phosphate buffered saline (PBS) before and after incubation with desired treatment medium. The control untreated cells were grown in parallel in the special medium as mentioned above at pH7.4. A portion of the cells were harvested every 4-6 weeks.” left out, “weekly.” for “weekly. Foci assay: Cells were plated at 5×10^5 cells per 100 mm dishes (35). Untreated cells grown in parallel were also plated. Cells were grown for 4-5 weeks with regular medium changes beyond 100% confluency, fixed with 10% methanol, 10% acetic acid solution, and stained with 20% ethanol, 0.4% crystal violet for 5 min. Growth in soft agar: Each well of the six well plates was layered with base agar layer containing 0.8% agar in grown medium.”

SMILES | molecular changes (mRNA), particularly transformation marker TC22 (BAR-T cells [1]) | molecular changes (mRNA), particularly transformation marker TC22 (BAR-T cells [1]; listed as Acid (pH4)) | P53 expression (BAR-T cells [1]; A alone up to 34 weeks) | morphological changes (BAR-T cells [2]; chronic exposure to A alone, up to 34 weeks) | effect on BAR-T cells (BAR-T cells [2]; B alone up to 6 weeks, initial study)
Cl [A, Hydrochloric acid] | did not show the above molecular changes | remained mostly unchanged | minor increase | did not show any morphological changes | 
CC(CCC(=O)NCC(=O)O)C1CCC2C3C(O)CC4CC(O)CCC4(C)C3CCC12C (centres unmarked) [B, glycochenodeoxycholic acid, reference compound] |  |  |  |  | no appreciable effect
